molecular target: recombinant human HPK1 (Homo sapiens (Human), UniProt Q92918); assay: HPK1 kinase assay (ADP-Glo); type: biochemical; settings: 25 μM ATP, MBP substrate
Outline: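 Activity was read as ADP formed, detected by ADP-Glo luminescence after the reaction of 5 ng recombinant human HPK1 with MBP and ATP (stocks 0.5 μg/μl and 25 μM) for 40 min at 30 °C. Buffer was Tris pH 7.5 with MgCl2, BSA and DTT, with compound in 0.5% DMSO. IC50 came from inhibition curves.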

recombinant human HPK1, sequence (Q92918 whole entry): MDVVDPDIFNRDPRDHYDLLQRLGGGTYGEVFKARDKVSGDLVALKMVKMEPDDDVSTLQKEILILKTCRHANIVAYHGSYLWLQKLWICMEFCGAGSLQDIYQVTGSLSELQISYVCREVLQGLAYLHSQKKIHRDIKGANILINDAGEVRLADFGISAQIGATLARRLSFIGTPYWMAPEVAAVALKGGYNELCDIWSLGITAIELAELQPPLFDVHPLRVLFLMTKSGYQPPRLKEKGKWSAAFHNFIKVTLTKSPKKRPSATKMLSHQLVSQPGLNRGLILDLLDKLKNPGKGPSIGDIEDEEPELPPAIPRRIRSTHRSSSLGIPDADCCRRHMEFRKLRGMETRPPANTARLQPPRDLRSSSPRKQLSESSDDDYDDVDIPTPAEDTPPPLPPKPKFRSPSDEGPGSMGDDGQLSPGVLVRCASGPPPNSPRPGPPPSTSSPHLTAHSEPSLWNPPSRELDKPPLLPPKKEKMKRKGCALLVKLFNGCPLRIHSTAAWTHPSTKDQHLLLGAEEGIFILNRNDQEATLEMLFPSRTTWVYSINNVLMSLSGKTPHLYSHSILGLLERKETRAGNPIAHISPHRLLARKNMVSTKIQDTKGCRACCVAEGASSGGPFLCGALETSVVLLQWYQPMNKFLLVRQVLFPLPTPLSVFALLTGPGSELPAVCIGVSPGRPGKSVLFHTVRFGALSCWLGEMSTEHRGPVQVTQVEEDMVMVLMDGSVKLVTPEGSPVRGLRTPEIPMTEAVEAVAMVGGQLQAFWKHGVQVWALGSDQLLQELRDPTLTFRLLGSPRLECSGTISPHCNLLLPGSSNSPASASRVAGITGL

IC50, 0.501 to 1 µM:
Cc1c(F)cc2[nH]nc(Cl)c2c1-c1ccc2nc(NC(=O)[C@@H]3C[C@@H]3F)sc2c1 [Example 44, (1S,2S)-N-(6-(3-chloro-6-fluoro-5-methyl-1H-indazol-4-yl)benzo[d]thiazol-2-yl)-2-fluorocyclopropane-1-carboxamide]

IC50, > 1 µM:
CCOc1c(F)cc2[nH]ncc2c1-c1ccc2nc(NC(=O)[C@@H]3C[C@@H]3F)sc2n1 [Example 201, (1S,2S)-N-(5-(5-ethoxy-6-fluoro-1H-indazol-4-yl)thiazolo[5,4-b]pyridin-2-yl)-2-fluorocyclopropane-1-carboxamide]
CSc1ccc(-c2ccc3nc(NC(=O)[C@@H]4C[C@@H]4F)sc3c2)c2cn[nH]c12 [Example 142, (1S,2S)-2-fluoro-N-(6-(7-(methylthio)-1H-indazol-4-yl)benzo[d]thiazol-2-yl)cyclopropane-1-carboxamide]
O=C(Nc1nc2ccc(-c3c(F)c(C(F)(F)F)cc4[nH]ncc34)nc2s1)[C@@H]1C[C@@H]1F [Example 171, (1S,2S)-2-fluoro-N-(5-(5-fluoro-6-(trifluoromethyl)-1H-indazol-4-yl)thiazolo[5,4-b]pyridin-2-yl)cyclopropane-1-carboxamide]

IC50, 0.101 to 0.5 µM:
NCC1CCN(c2c(F)c(Cl)c(-c3ccc4nc(NC(=O)[C@@H]5C[C@@H]5F)sc4c3)c3cn[nH]c23)C1 (stereo partly drawn) [Example 91, (1S,2S)-N-(6-(7-(3-(aminomethyl)pyrrolidin-1-yl)-5-chloro-6-fluoro-1H-indazol-4-yl)benzo[d]thiazol-2-yl)-2-fluorocyclopropanecarboxamide]
O=C(Nc1cn2cc(-c3c(Cl)c(F)c(CN4CCCCC4)c4[nH]ncc34)ccc2n1)[C@@H]1C[C@@H]1F [Example 382, (1S,2S)-N-(6-(5-chloro-6-fluoro-7-(piperidin-1-ylmethyl)-1H-indazol-4-yl)imidazo[1,2-a]pyridin-2-yl)-2-fluorocyclopropane-1-carboxamide]
Cc1c(F)c(S(C)(=O)=O)c2[nH]ncc2c1-c1ccc2nc(NC(=O)[C@@H]3C[C@@H]3F)cn2c1 [Example 270, (1S,2S)-2-fluoro-N-(6-(6-fluoro-5-methyl-7-(methylsulfonyl)-1H-indazol-4-yl)imidazo[1,2-a]pyridin-2-yl)cyclopropane-1-carboxamide]
O=C(Nc1cn2cc(-c3c(C(F)F)ccc4[nH]ncc34)ccc2n1)C1CC1 [Example 249, N-(6-(5-(difluoromethyl)-1H-indazol-4-yl)imidazo[1,2-a]pyridin-2-yl)cyclopropanecarboxamide]
CC(=O)c1c(F)c(Cl)c(-c2ccc3nc(NC(=O)[C@@H]4C[C@@H]4F)sc3c2)c2cn[nH]c12 [Example 128, (1S,2S)-N-(6-(7-acetyl-5-chloro-6-fluoro-1H-indazol-4-yl)benzo[d]thiazol-2-yl)-2-fluorocyclopropane-1-carboxamide]
CN(C)C(=O)c1c(F)cc(-c2ccc3nc(NC(=O)[C@@H]4C[C@@H]4F)sc3c2)c2cn[nH]c12 [Example 144, 6-fluoro-4-(2-((1S,2S)-2-fluorocyclopropane-1-carboxamido)benzo[d]thiazol-6-yl)-N,N-dimethyl-1H-indazole-7-carboxamide]
CNC(=O)c1c(F)c(Cl)c(-c2ccc3nc(NC(=O)[C@@H]4C[C@@H]4F)sc3n2)c2cn[nH]c12 [Example 195, 5-chloro-6-fluoro-4-(2-((1S,2S)-2-fluorocyclopropane-1-carboxamido)thiazolo[5,4-b]pyridin-5-yl)-N-methyl-1H-indazole-7-carboxamide]

IC50, < 0.1 µM:
CCc1c(F)c(SC(C)(C)C#N)c2[nH]ncc2c1-c1ccn2nc(NC(=O)[C@@H]3C[C@@H]3F)cc2c1 [Example 603, (1S,2S)-N-(5-(7-((2-cyanopropan-2-yl)thio)-5-ethyl-6-fluoro-1H-indazol-4-yl)pyrazolo[1,5-a]pyridin-2-yl)-2-fluorocyclopropane-1-carboxamide]
O=C(Nc1cc2cc(-c3c(Cl)c(F)c(CF)c4[nH]ncc34)ccn2n1)[C@@H]1C[C@@H]1F [Example 634, (1S,2S)-N-(5-(5-chloro-6-fluoro-7-(fluoromethyl)-1H-indazol-4-yl)pyrazolo[1,5-a]pyridin-2-yl)-2-fluorocyclopropane-1-carboxamide]
CNC(=O)N(C)c1c(F)c(Cl)c(-c2ccn3nc(NC(=O)[C@@H]4C[C@@H]4F)cc3c2)c2cn[nH]c12 [Example 664, (1S,2S)-N-(5-(5-chloro-7-(1,3-dimethylureido)-6-fluoro-1H-indazol-4-yl)pyrazolo[1,5-a]pyridin-2-yl)-2-fluorocyclopropane-1-carboxamide]
CSc1ccc(-c2ccn3nc(NC(=O)[C@@H]4C[C@@H]4F)cc3c2)c2cn[nH]c12 [Example 593, (1S,2S)-2-fluoro-N-(5-(7-(methylthio)-1H-indazol-4-yl)pyrazolo[1,5-a]pyridin-2-yl)cyclopropane-1-carboxamide]
Cc1c(F)cc2[nH]ncc2c1-c1ccc2nc(NC(=O)[C@@H]3C[C@@H]3F)sc2n1 [Example 147, (1S,2S)-2-fluoro-N-(5-(6-fluoro-5-methyl-1H-indazol-4-yl)thiazolo[5,4-b]pyridin-2-yl)cyclopropane-1-carboxamide]
CNc1c(F)c(Cl)c(-c2ccc3nc(NC(=O)[C@@H]4C[C@@H]4F)cn3c2)c2cn[nH]c12 [Example 265, (1S,2S)-N-(6-(5-chloro-6-fluoro-7-(methylamino)-1H-indazol-4-yl)imidazo[1,2-a]pyridin-2-yl)-2-fluorocyclopropane-1-carboxamide]
COC(=O)c1c(F)c(Cl)c(-c2ccc3nc(NC(=O)[C@@H]4C[C@@H]4F)cn3c2)c2cn[nH]c12 [Example 315, methyl 5-chloro-6-fluoro-4-(2-((1S,2S)-2-fluorocyclopropane-1-carboxamido)imidazo[1,2-a]pyridin-6-yl)-1H-indazole-7-carboxylate]
O=C(Nc1nc2ccc(-c3c(Cl)c(F)c(SCCCO)c4[nH]ncc34)cc2s1)[C@@H]1C[C@@H]1F [Example 86, (1S,2S)-N-(6-(5-chloro-6-fluoro-7-((3-hydroxypropyl)thio)-1H-indazol-4-yl)benzo[d]thiazol-2-yl)-2-fluorocyclopropanecarboxamide]
O=C(Nc1cn2cc(-c3c(C(F)F)c(F)cc4[nH]ncc34)ccc2n1)[C@@H]1C[C@@H]1F [Example 253, (1S,2S)-N-(6-(5-(difluoromethyl)-6-fluoro-1H-indazol-4-yl)imidazo[1,2-a]pyridin-2-yl)-2-fluorocyclopropane-1-carboxamide]
NC1CCC(Nc2c(F)c(Cl)c(-c3ccn4nc(NC(=O)[C@@H]5C[C@@H]5F)cc4c3)c3cn[nH]c23)CC1 (stereo partly drawn) [Example 515, (1S,2S)-N-(5-(7-((4-aminocyclohexyl)amino)-5-chloro-6-fluoro-1H-indazol-4-yl)pyrazolo[1,5-a]pyridin-2-yl)-2-fluorocyclopropane-1-carboxamide]
Cc1c(F)cc2[nH]ncc2c1-c1ccn2nc(NC(=O)[C@@H]3C[C@@H]3F)cc2c1 [Example 460, (1S,2S)-2-fluoro-N-(5-(6-fluoro-5-methyl-1H-indazol-4-yl)pyrazolo[1,5-a]pyridin-2-yl)cyclopropane-1-carboxamide]
Cc1c(F)cc2[nH]ncc2c1-c1ccc2nc(NC(=O)[C@@H]3C[C@@H]3F)sc2c1 [Example 40, (1S,2S)-2-fluoro-N-(6-(6-fluoro-5-methyl-1H-indazol-4-yl)benzo[d]thiazol-2-yl)cyclopropane-1-carboxamide]
CC(=O)Nc1c(F)c(Cl)c(-c2ccn3nc(NC(=O)[C@@H]4C[C@@H]4F)cc3c2)c2cn[nH]c12 [Example 537, (1S,2S)-N-(5-(7-acetamido-5-chloro-6-fluoro-1H-indazol-4-yl)pyrazolo[1,5-a]pyridin-2-yl)-2-fluorocyclopropane-1-carboxamide]
Cc1c(F)c(F)c2[nH]ncc2c1-c1ccc2nc(NC(=O)[C@@H]3C[C@@H]3F)sc2c1 [Example 109, (1S,2S)-N-(6-(6,7-difluoro-5-methyl-1H-indazol-4-yl)benzo[d]thiazol-2-yl)-2-fluorocyclopropane-1-carboxamide]
O=C(Nc1cc2cc(-c3c(Cl)c(F)c(C4CC(O)CO4)c4[nH]ncc34)ccn2n1)[C@@H]1C[C@@H]1F (stereo partly drawn) [Example 658, (1S,2S)-N-(5-(5-chloro-6-fluoro-7-(4-hydroxytetrahydrofuran-2-yl)-1H-indazol-4-yl)pyrazolo[1,5-a]pyridin-2-yl)-2-fluorocyclopropane-1-carboxamide]
C=Cc1c(F)c(Cl)c(-c2ccc3nc(NC(=O)[C@@H]4C[C@@H]4F)sc3c2)c2cn[nH]c12 [Example 61, (1S,2S)-N-(6-(5-chloro-6-fluoro-7-vinyl-1H-indazol-4-yl)benzo[d]thiazol-2-yl)-2-fluorocyclopropane-1-carboxamide]
CN(Cc1ccncc1)c1c(F)c(Cl)c(-c2ccc3nc(NC(=O)[C@@H]4C[C@@H]4F)cn3c2)c2cn[nH]c12 [Example 353, (1S,2S)-N-(6-(5-chloro-6-fluoro-7-(methyl(pyridin-4-ylmethyl)amino)-1H-indazol-4-yl)imidazo[1,2-a]pyridin-2-yl)-2-fluorocyclopropane-1-carboxamide]
CCOC(=O)CSc1c(F)c(CC)c(-c2ccc3nc(NC(=O)[C@@H]4C[C@@H]4F)sc3n2)c2cn[nH]c12 [Example 165, ethyl 2-((5-ethyl-6-fluoro-4-(2-((1S,2S)-2-fluorocyclopropane-1-carboxamido)thiazolo[5,4-b]pyridin-5-yl)-1H-indazol-7-yl)thio)acetate]
CN(C)c1c(F)c(C(F)(F)F)c(-c2ccc3nc(NC(=O)[C@@H]4C[C@@H]4F)sc3n2)c2cn[nH]c12 [Example 207, (1S,2S)-N-(5-(7-(dimethylamino)-6-fluoro-5-(trifluoromethyl)-1H-indazol-4-yl)thiazolo[5,4-b]pyridin-2-yl)-2-fluorocyclopropane-1-carboxamide]

Source: US11649255B2, “Indazoles as hematopoietic progenitor kinase 1 (HPK1) inhibitors and methods using same” (1st Biotherapeutics, Inc., priority 2020, dated 2023)
